Source: publication PMC10831447 (Molecular Cancer Therapeutics, 2023)

Legend:
[1] = tested on: A549 wild-type; experiment: Colony formation assay; assay type: cell-based, human; conditions: 1E−05, 2.5E−06, 5E−07 mol/L
[2] = tested on: A549 p53 KO; experiment: Colony formation assay; assay type: cell-based, human; conditions: isogenic A549 TP53 KO; 1E−05, 2.5E−06, 5E−07 mol/L
[3] = cited from earlier work
[4] = tested on: 25 RCC PDX models; experiment: RCC PDX in vivo study, all models; parameters: species or system mouse
[5] = tested on: A549 wild-type; experiment: Cell-cycle analysis by FACS; assay type: cell-based, human; conditions: A549 parental; 24 hours; M8891 1E−06 mol/L, nutlin-3A 3E−06 mol/L
[6] = tested on: A549 p53 KO; experiment: Cell-cycle analysis by FACS; assay type: cell-based, human; conditions: A549 TP53 KO; M8891 1E−06 mol/L, nutlin-3A 3E−06 mol/L

Structure (SMILES) | colony formation [1] | colony formation [2] | elimination [3] | side effects [3] | integrated survival analysis based on RTV changes (AUC) ([4]; across all 25 PDX models) | antitumor activity in cohort of 25 RCC PDX models ([4]; dose and schedule tested in this study) | cell-cycle distribution [5] | shift in cell-cycle distribution [6]
CO[C@@H]1[C@H](OC(=O)NC(=O)CCl)CC[C@]2(CO2)[C@H]1[C@@]1(C)O[C@@H]1CC=C(C)C [TNP-470] | blocked | resistant | rapid elimination | neurologic side effects |  |  |  | 
CCN(CC)CCNC(=O)c1c(C)[nH]c(/C=C2\C(=O)Nc3ccc(F)cc32)c1C [Sunitinib] |  |  |  |  | clear survival benefit | moderate |  | 
COc1ccc(C2=N[C@@H](c3ccc(Cl)cc3)[C@@H](c3ccc(Cl)cc3)N2C(=O)N2CCNC(=O)C2)c(OC(C)C)c1 [nutlin-3A] | significantly reduced colony formation | resistant |  |  |  |  | more prominent arrest in G2–M | not observed
